Key:
Format in all cases: functional
Vibrio harveyi [1] = assay: Effect on 1-methyl-4-phenylpyridinium-induced mutagenicity in Vibrio harveyi BB7XM assessed as number of neomycin-resistant mutants at 100 uM
Vibrio harveyi [2] = assay: Effect on 1-methyl-4-phenyl-2,3-dihydropyridinium-induced mutagenicity in Vibrio harveyi BB7XM assessed as number of neomycin-resistant mutants at 1000 uM
Vibrio harveyi [3] = assay: Effect on 1-methyl-4-phenylpyridinium-induced mutagenicity in Vibrio harveyi BB7XM assessed as number of neomycin-resistant mutants at 500 uM
Vibrio harveyi [4] = assay: Effect on 1-methyl-4-phenyl-2,3-dihydropyridinium-induced mutagenicity in Vibrio harveyi BB7XM assessed as number of neomycin-resistant mutants at 500 uM
Vibrio harveyi [5] = assay: Effect on 1-methyl-4-phenyl-2,3-dihydropyridinium-induced mutagenicity in Vibrio harveyi BB7XM assessed as number of neomycin-resistant mutants at 10 uM
Vibrio harveyi [6] = assay: Effect on 1-methyl-4-phenylpyridinium-induced mutagenicity in Vibrio harveyi BB7XM assessed as number of neomycin-resistant mutants at 1000 uM
Vibrio harveyi [7] = assay: Effect on 1-methyl-4-phenylpyridinium-induced mutagenicity in Vibrio harveyi BB7XM assessed as number of neomycin-resistant mutants at 10 uM
Vibrio harveyi [8] = assay: Effect on 1-methyl-4-phenyl-2,3-dihydropyridinium-induced mutagenicity in Vibrio harveyi BB7XM assessed as number of neomycin-resistant mutants at 100 uM

Compound | Activity (Vibrio harveyi [1]) | Activity (Vibrio harveyi [2]) | Activity (Vibrio harveyi [3]) | Activity (Vibrio harveyi [4]) | Activity (Vibrio harveyi [5]) | Activity (Vibrio harveyi [6]) | Activity (Vibrio harveyi [7]) | Activity (Vibrio harveyi [8])
Cn1c(=O)c2c(ncn2C)n(C)c1=O [CAFFEINE] | 50 | 47 | 31 | 51 | 293 | 7 | 103 | 70
CC(=O)CCCCn1c(=O)c2c(ncn2C)n(C)c1=O [PENTOXIFYLLINE] | 78 | 51 | 52 | 77 | 278 | 24 | 116 | 143
